Source: US20130225669A1 (priority 2012, published 2013)
Where “and” joins values, the source holds several entries; their conditions need not be identical. Equal entries are not always repeated. Entries after “also recorded” stand apart in the source; their conditions may differ. Where two headings read alike, the source gives them in different places.

What was measured:
3T3 fibroblasts = settings: in vitro; cited from earlier work
[1] = cited from earlier work
[2] = system: bovine nucleus pulposus cells; settings: cells entrapped in chitosan gels crosslinked with 5% genipin; cited from earlier work
fibroblasts [3] = settings: cells directly exposed to genipin solution; cited from earlier work
[4] = system: Bacillus subtilis var. niger spores; type: cell-based
[5] = system: Bacillus subtilis var. niger spores; type: cell-based; settings: for colonies at the 1-log reduction level: 72 hours, room temperature
Experimental: B. subtilis mini spores strips with 1.2×10^6 spores were treated with 0.5 mL of sterile PBS; 1:1 DMSO:PBS without genipin; 0.63%, 2%, 6%, and 10% genipin in 1:1 DMSO:PBS; and 10% formalin for 72 hours at room temperature (N=4 per group). Spore strips were then washed with sterile water and then aseptically macerated, serially diluted, and plated onto petri dishes with soybean-casein digest agar (Mo Bio Laboratories, Carlsbad, Calif.). Spores were incubated for 48 hours at 32.5° C. after which time colony counts were performed.

[6] = system: Bacillus subtilis var. niger spores; type: cell-based; settings: for spore strips sterilized: room temperature (Example 6)
Experimental: The sterilization potential of genipin was measured by treating B. subtilis mini spore strips with 1.2×10^6 bacterial spores (ATCC 9372, North American Science Associates, Inc., Northwood, Ohio) with 0.5 mL of sterile 1:1 dimethyl sulfoxide (Avantor Performance Materials, Inc., Center Valley, Pa.): phosphate-buffered saline (Fisher Scientific, Pittsburgh, Pa.) (DMSO: PBS, v/v); 2%, 6%, and 10% genipin in 1:1 DMSO:PBS; and 10% formalin (Fisher Scientific, Pittsburgh, Pa.) (N=4 per group). Genipin treatments corresponded to 8.3 mg, 25 mg, and 42 mg genipin per 10^6 spores for the 2%, 6%, and 10% groups, respectively. Treatment was conducted at room temperature, 20-25° C., for 24 hours and 72 hours. Spore strips were subsequently washed with sterile water and aseptically transferred to Releasat® rapid-readout color changing vials (SGM Biotech, Bozeman, Mont.) which have soybean-casein digest medium with the pH indicator phenol red, designed to change color from orange to yellow in the presence of spore germination and proliferation. Spores were incubated for one week at 37° C.
B. subtilis mini spores strips with 1.2×10^6 spores were treated with 0.5 mL of sterile PBS and 1:1 DMSO:PBS without genipin; 0.03%, 0.32%, and 0.63% genipin in 1:1 DMSO: PBS; 0.63% genipin in PBS; and 10% formalin for 72 hours at room temperature (N=4 per group). Genipin treatments corresponded to 0.13 mg, 1.3 mg, and 2.6 mg genipin per 10^6 spores for the 0.03%, 0.32%, and 0.63% groups, respectively. Spore strips were subsequently washed with sterile water, aseptically transferred to Releasat® vials, and incubated for one week at 37° C.
B. subtilis mini spores strips with 1.2×10^6 spores were treated with 0.5 mL of sterile 1:1 DMSO:PBS without genipin; 0.63%, 2%, 6%, and 10% genipin in 1:1 DMSO:PBS; and 10% formalin for 72 hours at room temperature (N=4 per group). Spore strips were subsequently washed with sterile water, aseptically transferred to Releasat® vials, and incubated for one week at 37° C.
A priori power analysis was performed with G*Power (G*Power 3.1.3, Kiel, Germany). To detect at least a one-log difference in population assays, comparing groups at an α=0.05 and power >0.999 required N=3 per group. One-tailed Mann-Whitney U tests were performed for comparing population assay groups. Chi squared tests and binomial exact confidence intervals were performed comparing spore viability against expected spore counts for dichotomous (sterile, non-sterile) growth in medium based on the manufacturer's certificate of analysis (COA), and the population assays (PA, for B. subtilis only), using Minitab 16 (Minitab, Inc., State College, Pa.). Statistical significance was set at p≦0.05.

osteoblasts = settings: cells directly exposed to genipin solution; cited from earlier work
[7] = system: Chinese hamster ovary (CHO-K1) cells; settings: in vitro; cited from earlier work
fibroblasts [8] = settings: cited from earlier work
cells in culture = settings: 2200 μMolar sterile genipin; cited from earlier work
B. subtilis spores = assay: Scanning electron microscopy of genipin-treated spores; type: cell-based; settings: 10% and 0.63% genipin in 1:1 DMSO:PBS, 72 hours, room temperature
Experimental: The morphology of B. subtilis was evaluated using scanning electron microscopy. Spore strips were either untreated, treated with 0.5 mL of sterile 1:1 DMSO:PBS without genipin, or 0.5 mL of sterile 0.63% or 10% genipin in 1:1 DMSO:PBS for 72 hours at room temperature. After treatment, spore strips were washed with sterile water and dehydrated with increasing concentrations of ethanol (70%, 80%, 90%, and 100%) and subjected to critical point drying. The spore strips were mounted onto a stage, sputter coated with gold, and visualized under a scanning electron microscopy (Hitachi S-4500 Cold Field Emission SEM, Hitachi, Ltd., Tokyo, Japan).

B. pumilus spores = assay: Spore strip sterilization, soybean-casein medium; type: cell-based; settings: 72 hours
Experimental: (§1) Spore strips of B. pumilus (ATCC 27142) with 1.9×10^6 spores (SGM Biotech, Bozeman, Mont.) and G. stearothermophilus (ATCC 7953) with 1.9×10^6 spores (SGM Biotech, Bozeman, Mont.) were treated with doses of genipin equivalent to those that sterilized of B. subtilis. B. pumilus conventional spore strips were treated with 1.75 mL of solution and G stearothermophilus mini spore strips were treated with 0.5 mL of solution. Spore strips were treated with 1:1 DMSO:PBS; 2.6 mg, 8.3 mg, 25 mg, and […] genipin per 10^6 spores in 1:1 DMSO:PBS; and 10% formalin (N=4). After treatment for 72 hours spore strips were washed and transferred to soybean-casein medium (Becton Dickinson, Franklin Lanes, N.J.). B. pumilus was incubated at 32.5° C. and G stearothermophilus was incubated at 57.5° C.

[9] = system: Geobacillus stearothermophilus spores; assay: Spore strip sterilization, soybean-casein medium; type: cell-based
Experimental: as §1

[10] = cited from earlier work; remark: listed apart in the source
[11] = system: over 40 bacterial (non-spore forms) and fungal species; settings: most 20-40%; cited from earlier work
[12] = 0.03% genipin in 1:1 DMSO:PBS, 72 hours, room temperature
[13] = 0.32% genipin in 1:1 DMSO:PBS, 72 hours, room temperature

COC(=O)C1=CO[C@@H](O)C2C(CO)=CC[C@H]12 (stereo in doubt) [genipin, methyl (1R,2R,6S)-2-hydroxy-9-(hydroxymethyl)-3-oxabicyclo [4.3.0]nona-4,8-diene-5-carboxylate]
cytotoxicity compared with glutaraldehyde (3T3 fibroblasts): substantially less cytotoxic than glutaraldehyde | relative solubility in solvents ([1]; organic solvents versus PBS): more soluble in ethanol than in PBS; also recorded: substantially more soluble in organic solvents | solubility in PBS ([1]; phosphate-buffered saline): approximately 1% | cell viability [2]: up to 87% | concentration sufficient for cytotoxicity (fibroblasts [3]): 80-100 ppm | sterile vials ([4]; 0.63% genipin in 50% DMSO/50% PBS, room temperature (Example 12)): 2/5 | log reduction in spore viability ([4]; 0.63% genipin in PBS, 37° C.): ≥ 6 log | sterile vials ([4]; 0.63% genipin, all doses of DMSO (0-50%) in PBS, 37° C.): 5/5 | colonies at the 1-log reduction level ([5]; 0.63% genipin in 1:1 DMSO:PBS): no colonies | log reduction in B. subtilis viability ([5]; 0.63% genipin in PBS, one week treatment (unpublished pilot data)): 2 log | colonies at the 1-log reduction level ([5]; 2% genipin in 1:1 DMSO:PBS): no colonies | colonies at the 1-log reduction level ([5]; 6% genipin in 1:1 DMSO:PBS): no colonies | colonies at the 1-log reduction level ([5]; 10% genipin in 1:1 DMSO:PBS): three 10% genipin-treated spore strips yielded no colonies | log reduction in spore viability [6, 12]: 5- to 6 log and > 5 log | spore strips sterile [6, 12]: two of four | log reduction in spore viability [6, 13]: 5- to 6 log and > 5 log | spore strips sterile [6, 13]: one of four | spore strips sterile ([6]; 0.63% genipin in 1:1 DMSO:PBS, 72 hours, room temperature (Example 7)): Three of four | spore strip viability/sterility ([6]; 0.63% genipin in PBS, 72 hours, room temperature): demonstrated viability | log reduction in spore viability ([6]; 0.63% genipin, all doses of DMSO (0-50%), 37° C.): ≥ 6 log | spore strip viability/sterility ([6]; 0.63%, 2%, 6%, 10% genipin in 1:1 DMSO:PBS, 72 hours, room temperature (confirmation, Example 8)): sterilized the spore strips | log reduction in spore viability ([6]; 0.63%-10% genipin in 1:1 DMSO:PBS, 72 hours, room temperature (confirmatory experiment)): at least 6 log | genipin dose necessary for eradication of B. subtilis ([6]; 1:1 DMSO:PBS, 72 hours, room temperature): at least 2.6 mg/10^6 spores | spore strips sterilized ([6]; 2% genipin in 1:1 DMSO:PBS, 72 hours): 3 of 4 | spore strip viability/sterility ([6]; 2%-10% genipin in 1:1 DMSO:PBS, 24 hours, room temperature): demonstrated bacterial viability; also recorded: unable to sterilize any spore strips; also recorded: yellow (growth) | spore strips sterilized ([6]; 6% genipin in 1:1 DMSO:PBS, 72 hours): 3 of 4 | spore strips sterilized ([6]; 10% genipin in 1:1 DMSO:PBS, 72 hours): all | concentration sufficient for cytotoxicity (osteoblasts): 80-100 ppm | clastogenic response [7]: does not cause clastogenic response | fibroblast proliferation on treated tissue (fibroblasts [8]; bovine pericardia treated with 0.625% genipin in PBS, within three days): substantial fibroblast proliferation | cell death (cells in culture): complete cell death | spore morphology versus untreated spore strips (B. subtilis spores): no appreciable morphological differences | log reduction in spore viability (B. pumilus spores; 2.6 mg-42 mg genipin/10^6 spores in 1:1 DMSO:PBS, room temperature): at least 6 log | spore strips sterilized (B. pumilus spores; all genipin doses (2.6-42 mg per 10^6 spores) in 1:1 DMSO:PBS): 4/4 | spore strips sterilized ([9]; 2.6 mg genipin/10^6 spores in 1:1 DMSO:PBS, 72 hours): Three of 4 | log reduction in spore viability ([9]; 2.6 mg-42 mg genipin/10^6 spores in 1:1 DMSO:PBS, 72 hours, room temperature): at least 6 log | spore strips sterilized ([9]; 8.3 mg genipin/10^6 spores in 1:1 DMSO:PBS, 72 hours): 4/4 | spore strips sterilized ([9]; 25 mg genipin/10^6 spores in 1:1 DMSO:PBS, 72 hours): Three of 4 | spore strips sterilized ([9]; 42 mg genipin/10^6 spores in 1:1 DMSO:PBS, 72 hours): 4/4

C[S+](C)[O-] [DMSO, dimethyl sulfoxide]
toxicity rate ([10]; DMSO washed off or less than 10% DMSO): 0.3% | toxicity incidence ([10]; stem cells cryopreserved with 10% DMSO, review of 34,000 transplants): 1.5% | microbicidal concentration [11]: 8 to 40%

C=O [formalin, reference compound]
colonies at the 1-log reduction level ([5]; 10% formalin): no colonies | spore strip viability/sterility ([6]; 10% formalin, 24 hours, room temperature): orange (sterile) | spore strip viability/sterility ([9]; 10% formalin, 72 hours): presence of spore viability | spore strips from which G. stearothermophilus grew ([9]; 10% formalin, 72 hours): 100% | time required to demonstrate viability ([9]; 10% formalin, 72 hours treatment): 2.25 ± 0.50 days | spore strip viability/sterility ([9]; 10% formalin, 72 hours, listed as 10% formalin): demonstrated viability

O=CCCCC=O [glutaraldehyde, reference compound]
fibroblast proliferation on treated tissue (fibroblasts [8]; 0.625% glutaraldehyde-treated pericardia, after seven days): no cellular proliferation
